Experimental findings from US20020012943A1, “ELECTROCHEMICAL PROBES FOR DETECTION OF MOLECULAR INTERACTIONS AND DRUG DISCOVERY” (priority 1997, published 2002) are described below.

Where no end group is shown, it is not given here. The star is where a group is joined. Biotin = O=C1N[C@H]2[C@H](CS[C@H]2CCCCC(=O)*)N1

Experiment [1] deals with T1, GST-Src SH3 fusion protein (Homo sapiens, UniProt P12931).
T1 construct: made in house
As to the kind of experiment: Cyclic voltammetry of electrochemically-labeled peptide binding to a GST-Src SH3 coated electrode. The conditions noted are these: for specific cyclic voltammetry signal at GST-Src SH3 electrode: electrochemically-labeled peptide plus mediator, described in present tense. The method, then: Tin-doped indium oxide electrodes were purchased (Delta Technologies) as 2 cm^2 square glass slides and prepared for use as follows. The electrode was cleaned by sonication treatment in a laboratory sonicator by sequential treatment in Alkonox, neat isopropyl alcohol, distilled and deionized water (three times), and finally the desired buffer; each sonication treatment having been performed for 10 min. The cleaned electrodes were then immersed in a 5 mM solution of 1,12-dodecadicarboxylic acid and incubated at room temperature for 48-72 hours, followed by rinsing the electrodes with hexane (Analytical grade).
(§1) Protein crosslinking to the prepared electrode was then performed as follows. A 50 μL aliquot of a 5 mM solution of 1-(3-dimethylaminopropyl)-3-ethylcarbodiimide was placed on one side of the electrode and dried at room temperature. […] of a 4 mg/mL solution of a fusion protein in phosphate buffered saline (PBS)/0.1% Tween 20 was placed on the surface of the dried electrode previously treated with carbodiimide and incubated at 4° C. overnight to allow crosslinking to proceed. After this incubation, electrodes were washed once with a solution of 100 mM Tris-HCl (pH8.0)/100 mM NaCl for 5 min. and kept in PBS at 4° C. until used.
(§2) Cyclic voltammograms were collected using an EG&G PAR 273A potentiostat/galvanostat with a single compartment voltammetric cell equipped with a modified tin-doped indium oxide (ITO) working electrode (area=0.32 cm^2), platinum (Pt)-wire counter electrode and silver/silver chloride (Ag/AgCl) reference electrode (see Johnston et al, 1994, Inorg. Chem. 33: 6388-6390). An example of such a voltammogram is shown in FIG. 7 and was generated under the following conditions. A sample containing 50 mM Ru(NH3)6^3+ and 20 mM Ru(NH3)5^3+-labeled peptide dissolved in buffered aqueous solutions containing 50 mM sodium phosphate buffer (pH 6.8)/700 mM NaCl (having a total sodium ion concentration of 780 mM) was scanned at a rate of 15 mV/s. After scans with the electrochemically labeled peptide, the electrode was rinsed with the same 50 mM sodium phosphate buffer solution, and then with 50 mM Ru(NH3)6^3+ or an unlabeled peptide solution containing 50 mM Ru(NH3)6^3+. Cyclic voltammograms were obtained with 50 mM Ru(NH3)6^3+ after washing. […] A freshly prepared electrode was used for each experiment and a background scan of buffer alone was collected for each electrode and subtracted from subsequent scans.
The electrochemical analysis apparatus and methods of the invention were used to detect and analyze the specific binding interaction between the Src SH3 domain and a specific binding SH3 peptide as follows. […]

Another experiment concerns the target streptavidin (Streptomyces avidinii, UniProt P22629). As to the kind of experiment: Cyclic voltammetry of electrochemically-labeled peptide binding to a streptavidin coated electrode. The conditions noted are these: electrochemically-labeled peptide plus mediator; described in present tense. The method, then: as §1, §2
Electrodes are prepared by coating with the GST-Src SH3 fusion protein described above or with streptavidin using the procedures described in Example 2. […]

The target of the next experiment is MDM2 (Homo sapiens, UniProt Q00987). As to the kind of experiment: Cyclic voltammetry of electrochemically-labeled peptide binding to an MDM2 coated electrode. The conditions noted are these: electrochemically-labeled peptide plus mediator; described in present tense. The method, then: as §1
Cyclic voltammograms were collected using an EG&G PAR 273A potentiostat/galvanostat with a single compartment voltammetric cell equipped with a modified tin-doped indium oxide (ITO) working electrode (area=0.32 cm^2), platinum (Pt)-wire counter electrode and silver/silver chloride (Ag/AgCl) reference electrode (see Johnston et al, 1994, Inorg. Chem. 33: 6388-6390). An example of such a voltammogram is shown in FIG. 7 and was generated under the following conditions. A sample containing 50 mM Ru(NH3)6^3+ and 20 mM Ru(NH3)5^3+-labeled peptide dissolved in buffered aqueous solutions containing 50 mM sodium phosphate buffer (pH 6.8)/700 mM NaCl (having a total sodium ion concentration of 780 mM) was scanned at a rate of 15 mV/s. […]

Another experiment addresses T2, src SH3 domain (Homo sapiens, UniProt P12931).
T2 construct: The src SH3 domain was immobilized in a hydrogel as described above in Section A
As to the kind of experiment: Chronoamperometry of SA/B-HRP conjugated surrogate ligand binding to a src SH3 hydrogel electrode. To be noted: 100 mV. The method, then: The electrochemical analytic methods and apparati of the invention are used to detect protein:peptide interactions in a complex mixture. A variety of different target molecules and purchased from Polysciences (Warrington, Pa.). The redox polymer poly(1-vinylimidazole), modified with Os bipyridine redox centers (PVI-Os) was synthesized as described by Ohara et al. (1993, Anal. Chem. 65: 3512-3517). Specifically, hydrogels were prepared by mixing together 5 μL of each of the following solutions: a solution of a first member of a biological binding pair, typically comprising a receptor protein or fragment at a concentration of 4-6 mg/mL protein; 10 mg/mL PVI-Os, and 2.5 mg/mL PEGDGE. A 1 μL aliquot of the mixture was then spread on the surface of the glassy carbon electrodes. The hydrogel coated electrodes were cured overnight at room temperature prior to use.
The src SH3 domain was immobilized in a hydrogel as described above in Section A. This electrode was then used for electrochemical detection of surrogate ligand binding using a surrogate ligand prepared as follows.
A complex of streptavidin (SA) (Sigma Chemical Co., St. Louis, Mo.), biotinylated horseradish peroxidase (B-HRP) (Sigma) and biotinylated src SH3 surrogate ligand (His-Gly-Ser-Gly-Ser-Phe-Ser-His-Pro-Gln-Asn-Thr; SEQ ID No. 2) was prepared as follows. […]

Experiment [2] has as its system Tyrosine aminoacyl tRNA synthetase (tyrRS). Kind of experiment: Chronoamperometry of SA/B-HRP conjugated surrogate ligand binding to, and inhibitor displacement from, a tyrRS hydrogel electrode.

Chain of streptavidin (P22629 25-183): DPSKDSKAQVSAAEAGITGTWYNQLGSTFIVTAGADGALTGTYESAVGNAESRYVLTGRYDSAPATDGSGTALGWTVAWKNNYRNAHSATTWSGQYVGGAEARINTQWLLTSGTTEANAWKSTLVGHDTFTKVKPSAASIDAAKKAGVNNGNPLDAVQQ
Chain of MDM2 (Q00987 whole entry, species assumed): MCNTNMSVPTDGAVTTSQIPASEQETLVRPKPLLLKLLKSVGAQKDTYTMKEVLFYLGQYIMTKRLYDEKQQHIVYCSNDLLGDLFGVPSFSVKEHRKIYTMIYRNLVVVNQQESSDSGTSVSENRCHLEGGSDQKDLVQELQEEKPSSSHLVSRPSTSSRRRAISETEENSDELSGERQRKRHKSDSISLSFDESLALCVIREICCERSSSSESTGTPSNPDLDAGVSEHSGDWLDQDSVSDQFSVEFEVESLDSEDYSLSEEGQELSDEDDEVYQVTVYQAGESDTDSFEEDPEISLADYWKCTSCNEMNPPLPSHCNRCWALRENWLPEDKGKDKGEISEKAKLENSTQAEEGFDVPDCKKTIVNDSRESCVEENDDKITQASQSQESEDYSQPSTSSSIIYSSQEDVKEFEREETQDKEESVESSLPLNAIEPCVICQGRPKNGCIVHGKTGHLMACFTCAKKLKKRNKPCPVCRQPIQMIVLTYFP

In the case of Biotin-HHSGSGSQTFSDLWKL [p53 peptide], in experiment [1], the “specific cyclic voltammetry signal at GST-Src SH3 electrode” value is “No specific interaction is detected”. In addition, on streptavidin, the “specific cyclic voltammetry signal at streptavidin electrode” value is “No specific interaction is detected”. Besides, at MDM2, the “specific cyclic voltammetry signal at MDM2 electrode” value is “Specific signals are detected”.
As for “Gly-His-Gly-Ser-Gly-Arg-Ala-Leu-Pro-Pro-Leu-Pro-Arg-Tyr-NH2 (GHGSGRALPPLPRY-NH2) [NPDF-1]”, the “integrated cyclic voltammetry signal, mediator background subtracted” value in experiment [1] (GST-Src SH3 coated electrode compared with GST alone, Ru-labeled peptide, hexaamineruthenium(III) mediator, 2 hours incubation) is “much higher signal”. For the same substance, the “specific cyclic voltammetry signal at GST-Src SH3 electrode” value in experiment [1] is recorded as “Specific signals are detected”. Further, the “specific cyclic voltammetry signal at streptavidin electrode” value with streptavidin is reported as “no specific signal is detected”.
Take HGSGSFSHPQNT [src SH3 surrogate ligand]: the “time at which current reaches plateau” value at src SH3 domain (100 μM H2O2, ligand added at t=600 sec (FIG. 8)) was in the range of 1500 to 2000 s. For the same substance, on src SH3 domain (100 μM H2O2, ligand added at t=600 sec to 1 μg/mL SA (FIG. 8)), the “current upon addition of SA/B-HRP conjugated surrogate ligand” value is given as “an increase in current was detected”.
Consider “HGSGSFSHPQNT [streptavidin binding peptide]”, for which the “specific cyclic voltammetry signal at GST-Src SH3 electrode” value in experiment [1] is “no specific signal is detected”. Also, the “specific cyclic voltammetry signal at streptavidin electrode” value with streptavidin is given as “Specific signals are detected”.
Turning to “LYSWPDEQYERPSGSGK [tyrRS surrogate ligand]”, in experiment [2] (from the single-exponential current rise of FIG. 9), the “binding rate constant (first order) for the tyrRS-surrogate ligand binding reaction” value worked out at 0.0012 s⁻¹. In addition, in experiment [2] (tyrRS hydrogel electrode, conditions as for src SH3 (FIG. 9)), the “current upon addition of SA/B-HRP conjugated surrogate ligand” value is given as “current was detected”.
